No end group written: not given here. *: point of attachment. Biotin = O=C1N[C@H]2[C@H](CS[C@H]2CCCCC(=O)*)N1

One test relates to CD147–β2AR complex. In words: BRET between CD147-Rluc and β2AR-YFP. Conditions: HEK293 cells. Type of test: cell-based, human.
The next test has as its system cytosolic tail of CD147. Put plainly: Surface plasmon resonance, immobilized CD147 cytosolic peptide. It counts as binding. The conditions noted are these: SPR, non-reducing buffer. The method, then: (§1) For SPR experiments, the fusion proteins GST-Actn4, GST alone or the GST-FERM domain of ezrin used as a control were diluted either in a non-reducing (PBS, 0.02% Tween-20) or a reducing (10 mM HEPES, 150 mM NaCl, 1 mM EDTA, 1 mM dithiothreitol, 0.005% Tween-20) running buffer. To control the impact of these buffers on the dimerization status of Actn4, Actn4-GST or GST alone as a control (final concentration 100 nM) were incubated for 30 min with 250 μM freshly prepared solution of bissulfosuccinimidyl suberate crosslinker, then separated on SDS–PAGE gels and transferred to nitrocellulose to analyse their electrophoretic migration by immunoblot. Interaction studies between α-Actn4 and CD147 were performed on a BIAcore T200 Instrument (BIAcore Life Sciences, GE Healthcare Europe). Streptavidin-coated sensor chips (Series S sensor chip SA; GE Healthcare) were used to capture a biotinylated peptide encoding the cytosolic sequence of CD147 (Biotin-[…]) or the juxta-membrane region of CD44 (Biotin-NSRRRCGQKKKLVINSG), purchased from Proteogenix, at a flow rate of 5 μl min^−1 in the non-reducing or the reducing running buffer. The density was controlled at an increased response level of 630 and 286 response units (RUs), for CD147 and CD44, respectively depending on molecular weight. […] Output sensorgrams were analysed using the BIAevaluation 4.1.1 Software.

Test [1] concerns the target juxta-membrane cytosolic portion of CD44. Put plainly: Surface plasmon resonance, immobilized CD44 juxta-membrane peptide. Type of test: binding. The conditions noted are these: SPR, non-reducing buffer, BIAcore T200, read-out: dissociation constant (Kd). How it is done: as §1
The target of test [2] is T1, recombinant glutathione-S-transferase (GST)–Actn4 fusion protein (human, UniProt O43707 1-911).
T1 construct: also called Actn4-GST; source: recombinant, purified
Put plainly: SPR; BIAcore T200, biotinylated peptides captured on streptavidin chip (630 RU CD147, 286 RU CD44), GST fusions as analytes, non-reducing buffer (PBS, 0.02% Tween-20), 25 μl/min, 60 s association, 60 s dissociation. The conditions noted are these: both partners purified.

The target of test [3] is T2, GST-coupled four-point-one, ezrin, radixin, moesin (FERM) domain of ezrin (human, UniProt P15311 2-296).
T2 construct: also called GST-FERM domain of ezrin; ezrin FERM domain in fusion with GST
Described as above. The conditions noted are these: both partners purified.

Test [4] concerns the target T1, recombinant glutathione-S-transferase …. In words: SPR; BIAcore T200, biotinylated peptide captured on streptavidin chip, GST-Actn4 as analyte, reducing buffer (10 mM HEPES, 150 mM NaCl, 1 mM EDTA, 1 mM dithiothreitol, 0.005% Tween-20); apparent affinity. Conditions: both partners purified.

T1 sequence (O43707 whole entry, the tested form may be a part): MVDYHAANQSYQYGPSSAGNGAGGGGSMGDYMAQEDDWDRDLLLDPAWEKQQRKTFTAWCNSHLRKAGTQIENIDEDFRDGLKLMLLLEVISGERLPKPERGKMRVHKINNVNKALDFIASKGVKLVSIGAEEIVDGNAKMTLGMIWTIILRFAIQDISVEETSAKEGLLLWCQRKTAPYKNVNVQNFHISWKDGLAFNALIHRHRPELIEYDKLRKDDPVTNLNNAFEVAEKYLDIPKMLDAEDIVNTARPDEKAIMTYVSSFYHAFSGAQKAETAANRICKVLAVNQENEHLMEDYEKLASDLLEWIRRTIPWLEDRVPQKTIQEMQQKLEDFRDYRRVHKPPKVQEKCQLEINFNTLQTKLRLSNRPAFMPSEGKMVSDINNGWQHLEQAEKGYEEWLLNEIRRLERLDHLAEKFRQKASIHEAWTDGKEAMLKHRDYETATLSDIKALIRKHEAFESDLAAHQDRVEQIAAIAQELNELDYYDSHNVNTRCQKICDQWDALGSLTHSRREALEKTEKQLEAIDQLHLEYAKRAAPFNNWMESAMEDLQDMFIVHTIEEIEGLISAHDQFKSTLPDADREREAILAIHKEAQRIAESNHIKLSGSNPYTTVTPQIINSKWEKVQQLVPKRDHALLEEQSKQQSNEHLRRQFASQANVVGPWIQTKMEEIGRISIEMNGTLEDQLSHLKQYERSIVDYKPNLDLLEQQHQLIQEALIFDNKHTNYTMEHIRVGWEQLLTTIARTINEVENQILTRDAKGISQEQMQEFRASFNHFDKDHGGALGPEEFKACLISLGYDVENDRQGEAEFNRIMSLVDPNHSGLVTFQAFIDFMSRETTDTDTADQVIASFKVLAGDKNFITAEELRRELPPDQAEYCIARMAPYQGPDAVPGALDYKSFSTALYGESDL
T2 sequence (P15311 2-296): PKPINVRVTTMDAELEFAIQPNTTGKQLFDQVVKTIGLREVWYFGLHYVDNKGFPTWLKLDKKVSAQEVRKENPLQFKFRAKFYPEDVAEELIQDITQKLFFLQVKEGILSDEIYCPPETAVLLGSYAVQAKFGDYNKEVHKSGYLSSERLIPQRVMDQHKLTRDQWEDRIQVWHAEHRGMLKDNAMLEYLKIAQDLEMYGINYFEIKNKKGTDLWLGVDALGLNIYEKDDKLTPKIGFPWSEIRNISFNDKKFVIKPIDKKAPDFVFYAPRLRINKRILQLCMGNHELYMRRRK
Procedure for CD147–β2AR complex: HEK293 cells (2 × 10^5 per well of a 6-well plates) were transfected with 2 ng plasmid DNA coding for the BRET donor (CD147-Luc, CD147ΔD2-Luc) and increasing amounts of BRET acceptor plasmids (β2-YFP, CCR5-YFP; 0–400 ng per well). Twenty-four hours after transfection, cells were resuspended in Hank's balanced salt solution and distributed in 96-well plates (Perkin-Elmer plates; 10^5 cells per well). After addition of the luciferase substrate, coelenterazine h (5 μM final concentration), luminescence at 485 nm and fluorescence at 530 nm were measured simultaneously in a Mithras LB940 Plate Reader. The BRET ratio was calculated as: ((emission at 530 nm/emission at 485 nm)−(background at 530 nm/background at 485 nm)), where background corresponds to signals in cells expressing the Rluc fusion protein alone under the same experimental conditions. For better readability, results were expressed in milli-BRET units (mBRET), 1 mBRET corresponding to the BRET ratio multiplied by 1000. BRET ratios were plotted as a function of ([YFP-YFP0])/(Rluc), where YFP is the fluorescence signal at 530 nm after excitation at 485 nm, and Rluc the signal at 485 nm after addition of coelenterazine h. YFP0 and Rluc0 correspond to the same values in cells expressing the Rluc fusion protein alone. […]

As to `CC(C)NCC(O)c1ccc(O)c(O)c1` (centres unmarked) [isoproterenol], the “BRET signal between CD147 and β2AR” value with CD147–β2AR complex (2 ng CD147-Rluc, 20 ng β2AR-YFP, isoproterenol 10 μM, read every 2 min for 20 min, mean±s.e.m., n=3, representative of four experiments) is reported as “reduced”.

With `CC(C)NCC(O)COc1cccc2ccccc12` (centres unmarked) [propranolol], the “effect on isoproterenol-induced BRET reduction” value in the test with CD147–β2AR complex (10 μM isoproterenol in combination with 10 μM propranolol, 20 min) was “This effect was inhibited”.

For “GST-coupled four-point-one, ezrin, radixin, moesin (FERM) domain of ezrin: GST-FERM domain of ezrin used as a control”, in the test on cytosolic tail of CD147, the “interaction with immobilized CD147 peptide” value was “poorly interacted with the CD147 peptide”. In addition, the Kd in test [1] was determined as 4.3 ± 0.1 nM.

B1: biotinylated peptide of the juxta-membrane region of CD44 (peptide)
peptide: Biotin-NSRRRCGQKKKLVINSG
notes: also called cytosolic tail of CD44; juxta-membrane cytosolic portion of CD44; source: synthetic peptide, bought: ProteoGenix
Turning to B1, the Kd is 159 ± 43 nM in test [2] and 4.3 ± 0.1 nM in test [3].

B2: biotinylated peptide encoding the cytosolic sequence of CD147 (peptide)
peptide: Biotin-AYDKRRKPEDVLDDDDAGSAPLKSSGQHQNDKGKNVRQRNSS
notes: also called CD147-CT; CD147 peptide; source: synthetic peptide, bought: ProteoGenix
With B2, the figures for the Kd in test [4] and in test [2] were 44600 ± 32500 nM and 4 ± 0.01 nM, respectively.

The values are drawn from PMC5461506, “Strength of Neisseria meningitidis binding to endothelial cells requires highly-ordered CD147/β2-adrenoceptor clusters assembled by alpha-actinin-4” (Nature Communications, 2017).
